# From US4990499A, “Anti-herpes simplex virus activity of 5-alkoxymethyl-2'-deoxycytidimes and their 5-monophosphates” (priority 1989, dated 1991)
# “Also recorded” adds a separate entry of the source.
# Legend:
# [1] = tested on: Nc1ccn([C@H]2C[C@H](O)[C@@H](COP(=O)(O)OP(=O)(O)OP(=O)(O)O)O2)c(=O)n1; experiment: Kinetic analysis / inhibition of HSV-1 DNA polymerase; type: biochemical; conditions: other: dCTP
# Experimental: (§1) The inhibition of HSV-1 and human DNA polymerase alpha by MMdCTP was studied and the results shown graphically in FIG. 16. Assay conditions were specific for each enzyme and each assay was performed in triplicate.
# [2] = target: T1, HSV-1 DNA Polymerase (Human herpesvirus 1, UniProt P04293); experiment: In vitro DNA synthesis by HSV-1 DNA polymerase ([3H]dAMP incorporation); type: biochemical, Herpes simplex virus type 1
# Experimental: The relative in vitro DNA synthesis by HSV-1 DNA Polymerase using dCTP or MMdCTP as the rate limiting substrate was determined. The synthesis was followed by assaying an incorporation of tritium labelled dAMP.
# + unlabelled dNTP concentration 10 μM
# ++ Radio labelled [^3 H]dAMP conc 0.2 μM
# *One hundred percent activity represents 27355 cpm of [^3 H]dAMP
# (§2) The number of pmoles of [^3 H] dAMP incorporated into control samples (`O`MMdCTP) was subtracted from pmoles of test samples. Other nucleotides,dATP, dTTP and dGTP were in excess (10 μm). Each assay was performed in triplicate.
# (§3) ^+ unlabeled dNTP concentration (10 μM).
# (§4) ^++ 0.2 μM of [^3 H]dATP was used in each assay.
# [3] = target: T2, human DNA polymerase alpha (Homo sapiens, UniProt P09884); experiment: In vitro DNA synthesis by human DNA polymerase alpha ([3H]dAMP incorporation); type: biochemical
# T2 sequence (P09884 1-1462): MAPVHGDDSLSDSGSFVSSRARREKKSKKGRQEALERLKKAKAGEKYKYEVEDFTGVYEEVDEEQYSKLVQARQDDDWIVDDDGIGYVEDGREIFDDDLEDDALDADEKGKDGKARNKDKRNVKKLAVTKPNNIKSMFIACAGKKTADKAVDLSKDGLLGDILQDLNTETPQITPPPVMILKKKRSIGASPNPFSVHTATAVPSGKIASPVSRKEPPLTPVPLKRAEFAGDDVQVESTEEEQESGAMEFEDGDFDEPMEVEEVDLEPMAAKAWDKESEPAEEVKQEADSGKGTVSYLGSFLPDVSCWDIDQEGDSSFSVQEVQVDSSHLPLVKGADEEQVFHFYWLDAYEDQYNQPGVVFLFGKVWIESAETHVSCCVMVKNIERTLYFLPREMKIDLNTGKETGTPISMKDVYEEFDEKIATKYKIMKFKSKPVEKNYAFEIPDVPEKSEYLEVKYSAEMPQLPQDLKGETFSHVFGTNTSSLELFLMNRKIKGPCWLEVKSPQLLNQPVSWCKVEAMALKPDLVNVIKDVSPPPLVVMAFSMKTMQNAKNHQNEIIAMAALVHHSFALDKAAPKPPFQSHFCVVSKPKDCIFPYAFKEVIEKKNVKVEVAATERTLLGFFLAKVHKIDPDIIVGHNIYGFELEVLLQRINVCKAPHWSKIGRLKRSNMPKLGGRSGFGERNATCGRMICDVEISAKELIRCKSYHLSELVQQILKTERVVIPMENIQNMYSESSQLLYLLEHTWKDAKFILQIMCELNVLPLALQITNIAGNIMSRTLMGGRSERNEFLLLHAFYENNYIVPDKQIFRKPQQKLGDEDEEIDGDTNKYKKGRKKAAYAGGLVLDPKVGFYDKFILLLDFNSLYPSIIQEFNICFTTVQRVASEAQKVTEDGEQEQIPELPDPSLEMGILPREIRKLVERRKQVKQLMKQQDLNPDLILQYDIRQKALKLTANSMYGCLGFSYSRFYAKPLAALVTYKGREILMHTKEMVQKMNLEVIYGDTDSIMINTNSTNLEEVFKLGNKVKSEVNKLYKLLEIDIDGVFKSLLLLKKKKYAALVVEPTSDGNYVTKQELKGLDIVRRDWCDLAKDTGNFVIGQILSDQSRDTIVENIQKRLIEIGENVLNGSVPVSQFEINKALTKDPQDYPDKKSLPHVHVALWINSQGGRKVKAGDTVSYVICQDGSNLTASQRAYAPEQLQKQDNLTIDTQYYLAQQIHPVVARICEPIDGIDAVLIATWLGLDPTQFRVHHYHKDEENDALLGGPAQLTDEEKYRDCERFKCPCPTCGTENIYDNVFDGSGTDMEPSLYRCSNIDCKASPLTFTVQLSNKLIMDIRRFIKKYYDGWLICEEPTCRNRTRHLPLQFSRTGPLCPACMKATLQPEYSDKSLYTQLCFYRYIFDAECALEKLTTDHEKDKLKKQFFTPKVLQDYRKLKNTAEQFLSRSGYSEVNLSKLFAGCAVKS
# Experimental: A comparison of in vitro DNA synthesis by viral and cellular DNA polymerases with MMdCTP as an alternative substrate. The results are shown graphically in FIG. 14 and compare HSV-1 DNA polymerase and human DNA polymerase alpha activity.
# as §2, §3, §4
# [4] = target: T1, HSV-1 DNA Polymerase; experiment: Kinetic analysis / inhibition of HSV-1 DNA polymerase; type: biochemical
# Experimental: as §1
# [5] = tested on: HSV-1, KOS; experiment: HSV-1 KOS infectivity in Vero cells prior to washing of drugs; type: cell-based, Herpes simplex virus type 1; conditions: at less than 2120 μM (500 μg/ml)
# Experimental: Vero cells were infected with HSV-1, KOS strain and then treated with MMdCyd in various quantities, and also with MMdCyd in various quantities together with a constant amount of H4 dUrd. The virus infectivity was observed and the results are given in Table 5 and are shown graphically in FIG. 3.
# ^a Virus infectivity was scored using following parameters: rounding
# of cells, plaque formation and loss of monolayer structure.
# ^b Concentration of H4 dUrd used was 530 μM (125 μg/ml).
# [6] = tested on: HSV-1, KOS; experiment: HSV-1 KOS infectivity (virus yield) in Vero cells after removal of drugs; type: cell-based, Herpes simplex virus type 1; conditions: up to 2120 μM (highest concentration tested)
# Experimental: Vero cells were infected with HSV-1, KOS strain and then samples of the infected cells were treated with MMdCyd in various quantities and with MMdCyd in various quantities together with 530 μM of H4 dUrd. Cells were washed twice with 0.4 ml of MEM to remove residual drug, overlaid with growth medium and incubated for 72 h. The virus was harvested by two cycles of freezing and thawing. The culture fluid from each treatment was pooled and assayed for virus yield.
# ^b H4 dUrd 530 μM (125 μg/ml) was added along with MMdCyd.
# [7] = tested on: Deoxynucleoside Triphosphate (dNTP) Pools in Uninfected Vero Cells; experiment: Deoxynucleoside triphosphate (dNTP) pools in uninfected (mock-infected) Vero cells; type: cell-based; conditions: Table 7, uninfected Vero cells, treatment 7 hours, ± S.E.
# Experimental: Vero cells were treated with MMdCyd, H4 dUrd and MMdCyd+H4 dUrd. The cells were then assayed for the presence of deoxynucleoside triphosphates. Untreated Vero cells were also assayed for the presence of deoxynucleoside triphosphates, to provide a control.
# ^a Cells were mock infected for one hour. Different treatments were
# ^b Values are means of at least two assays of triplicate cell
# (§5) Vero cells and HSV-infected Vero cells were treated with dGUO and dGUO and H4 dUrd. The cells were then assayed for the presence of deoxynucleoside triphosphates. Untreated Vero cells were also assayed for the presence of deoxynucleoside triphophate to provide a control.
# Vero cells were treated with N-methyl-MMdCyd. The cells were then assayed for dNTP pools.
# [8] = tested on: Deoxynucleoside Triphosphate (dNTP) Pools in Vero Cells Infected with Herpes Simplex Virus Type 1; experiment: Deoxynucleoside triphosphate (dNTP) pools in HSV-1 infected Vero cells; type: cell-based
# Experimental: Example 9 was repeated, except that the Vero cells subjected to the treatment had all been infected with HSV-1 KOS strain prior to the treatment.
# ^a Cells were infected with 10 PFU/cell of HSV1 KOS strain for one
# hour. Treatments were given for seven hours.
# ^a Cells were infected with 10 PFU/cell of HSV1, KOS strain after
# ^b H4 dUrd in MEM was added immediately after adsorption and
# ^c H4 dUrd in MEM was added immediately after adsorption and
# as §5
# ^c Cells were infected with 10 PFU/cell of HSV1 strain KOS for one
# [9] = in vitro; conditions: monkey, vero cells
# Experimental: The survival and viability of Vero cells grown in the presence of 2'-deoxyguanosine, H4 dUrd and deoxyguanosine+H4 dUrd was determined.
# [10] = target: E. coli DNA Polymerase 1 (Escherichia coli, UniProt P00582); experiment: In vitro DNA synthesis by E. coli DNA polymerase 1 ([3H]dAMP incorporation); type: biochemical
# Experimental: ^a Enzymatic assays were carried out with 1 unit of Sigma E. coli DNA
# Polymerase 1. dTTP, dGTP and [^3 H] dATP were non limiting (5 μM).
# ^b Values obtained are net after subtracting "0" samples which did no
# ^c Amount of NMeMMdCTP used with each concentration of dCTP was 0.625
# [11] = Table 8, HSV-1 KOS infected Vero cells, 10 PFU/cell, treatment 7 hours, ± S.E.
# [12] = Table 9, HSV-1 KOS infected, H4 dUrd pre-incubated 2 hours then removed, fresh MEM or MMdCyd
# T1 sequence (P04293 whole entry): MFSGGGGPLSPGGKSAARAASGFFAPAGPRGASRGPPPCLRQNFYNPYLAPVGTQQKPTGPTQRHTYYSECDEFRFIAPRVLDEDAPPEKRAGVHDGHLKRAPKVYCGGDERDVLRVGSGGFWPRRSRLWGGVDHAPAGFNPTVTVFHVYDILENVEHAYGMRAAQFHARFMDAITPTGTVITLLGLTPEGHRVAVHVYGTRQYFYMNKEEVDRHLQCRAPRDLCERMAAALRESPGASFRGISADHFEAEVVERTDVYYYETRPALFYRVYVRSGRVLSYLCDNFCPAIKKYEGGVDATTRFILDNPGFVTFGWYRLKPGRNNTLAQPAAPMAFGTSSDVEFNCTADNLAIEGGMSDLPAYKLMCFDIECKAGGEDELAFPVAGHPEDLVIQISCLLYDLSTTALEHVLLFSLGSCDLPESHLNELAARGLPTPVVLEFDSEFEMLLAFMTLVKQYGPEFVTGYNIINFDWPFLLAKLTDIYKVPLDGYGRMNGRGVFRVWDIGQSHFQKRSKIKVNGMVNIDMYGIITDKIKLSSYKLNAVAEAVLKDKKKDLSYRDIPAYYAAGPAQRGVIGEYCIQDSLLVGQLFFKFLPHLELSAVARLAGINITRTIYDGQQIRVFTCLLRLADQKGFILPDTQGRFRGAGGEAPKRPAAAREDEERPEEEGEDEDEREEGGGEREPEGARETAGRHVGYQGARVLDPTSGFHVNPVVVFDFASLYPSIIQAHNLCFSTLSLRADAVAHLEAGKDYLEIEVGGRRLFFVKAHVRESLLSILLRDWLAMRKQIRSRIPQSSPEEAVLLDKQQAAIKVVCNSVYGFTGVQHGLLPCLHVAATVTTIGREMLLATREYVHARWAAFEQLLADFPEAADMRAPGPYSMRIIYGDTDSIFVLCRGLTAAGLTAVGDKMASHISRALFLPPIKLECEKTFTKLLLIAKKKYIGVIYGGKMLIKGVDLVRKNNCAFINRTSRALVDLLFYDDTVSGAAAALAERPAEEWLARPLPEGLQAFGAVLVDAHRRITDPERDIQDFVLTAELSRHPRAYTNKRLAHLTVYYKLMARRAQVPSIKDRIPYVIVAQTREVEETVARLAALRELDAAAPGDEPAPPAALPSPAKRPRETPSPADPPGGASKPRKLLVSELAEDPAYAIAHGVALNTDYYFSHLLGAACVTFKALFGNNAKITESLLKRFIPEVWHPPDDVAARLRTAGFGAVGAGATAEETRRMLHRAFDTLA
# E. coli DNA Polymerase 1, sequence (P00582 whole entry): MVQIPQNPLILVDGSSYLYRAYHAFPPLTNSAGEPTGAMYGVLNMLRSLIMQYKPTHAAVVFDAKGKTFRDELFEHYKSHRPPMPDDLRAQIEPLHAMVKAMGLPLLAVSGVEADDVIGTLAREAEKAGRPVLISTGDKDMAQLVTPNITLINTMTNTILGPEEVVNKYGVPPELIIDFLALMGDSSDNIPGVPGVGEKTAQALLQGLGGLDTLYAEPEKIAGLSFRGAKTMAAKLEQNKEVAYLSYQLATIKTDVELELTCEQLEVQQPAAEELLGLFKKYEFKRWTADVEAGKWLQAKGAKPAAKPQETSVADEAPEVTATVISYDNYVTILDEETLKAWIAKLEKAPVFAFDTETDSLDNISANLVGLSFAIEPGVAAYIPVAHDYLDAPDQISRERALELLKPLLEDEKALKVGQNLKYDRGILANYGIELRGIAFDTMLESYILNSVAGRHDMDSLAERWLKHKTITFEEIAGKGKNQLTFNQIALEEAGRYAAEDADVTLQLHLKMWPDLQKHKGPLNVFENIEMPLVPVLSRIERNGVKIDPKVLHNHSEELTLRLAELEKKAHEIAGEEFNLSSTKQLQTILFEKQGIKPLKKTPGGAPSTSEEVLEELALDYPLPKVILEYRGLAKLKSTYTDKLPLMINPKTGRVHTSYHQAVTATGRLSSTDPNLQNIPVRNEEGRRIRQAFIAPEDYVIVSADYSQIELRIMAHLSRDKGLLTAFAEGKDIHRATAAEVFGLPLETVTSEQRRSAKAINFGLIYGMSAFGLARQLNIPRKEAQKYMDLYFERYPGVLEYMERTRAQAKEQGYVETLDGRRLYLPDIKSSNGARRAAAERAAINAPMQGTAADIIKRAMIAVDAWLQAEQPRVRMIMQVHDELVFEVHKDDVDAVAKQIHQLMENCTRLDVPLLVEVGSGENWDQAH
compound,measurement,setting,value
HSV-1 DNA Polymerase (Human alphaherpesvirus 1 strain 17),Km,[1],0.15 µM
"COCc1cn([C@H]2C[C@H](O)[C@@H](COP(=O)(O)OP(=O)(O)OP(=O)(O)O)O2)c(=O)nc1N [MMdCTP, 5-methoxymethyl-2'-deoxycytidine triphosphate]",utilization as alternative substrate ([^3 H] dAMP incorporation),"[2]; HSV-1 DNA polymerase, FIG. 14",readily utilized
same,preference as substrate versus dCTP,[2]; HSV-1 induced DNA polymerase,preferred as a substrate to dCTP
same,utilization as alternative substrate ([^3 H] dAMP incorporation),"[3]; human DNA polymerase alpha, FIG. 14",little used
same,Ki,[4],380 nM
same,inhibition of HSV-1 versus human DNA polymerase alpha,"[4]; FIG. 16, HSV-1 compared with human DNA polymerase alpha",clear difference in effect
same,Km/Ki,[4]; Km of dCTP / Ki of MMdCTP,0.4
"O=C1NC(O)CCN1[C@H]1C[C@H](O)[C@@H](CO)O1 (stereo partly shown) [H4 dUrd, tetrahydro-2'-deoxyuridine]",antiviral activity of H4 dUrd alone,[5],did not exhibit antiviral activity
same,antiviral activity of H4 dUrd,[6],did not exhibit antiviral activity; also recorded: no antiviral activity
same,dATP pool,[7],17.6 ± 1.28 .rho.moles/10^6 cells
same,dCTP pool,[7],30.8 ± 1.20 .rho.moles/10^6 cells
same,dGTP pool,[7],32 ± 1.3 .rho.moles/10^6 cells
same,dTTP pool,[7],27.5 ± 1.25 .rho.moles/10^6 cells
same,dATP pool,[8]; [11],94.7 ± 2.06 .rho.moles/10^6 cells
same,dCTP pool,[8]; [11],326 ± 12.6 .rho.moles/10^6 cells
same,dGTP pool,[8]; [11],101.3 ± 2.28 .rho.moles/10^6 cells
same,dTTP pool,[8]; [11],0.5 ± 0.34 .rho.moles/10^6 cells
same,dATP pool,[8]; [12],119.4 ± 3.1 .rho.moles/10^6 cells
same,dCTP pool,[8]; [12],312 ± 10.1 .rho.moles/10^6 cells
same,dGTP pool,[8]; [12],141 ± 2.6 .rho.moles/10^6 cells
same,dTTP pool,[8]; [12],2 ± 0.41 .rho.moles/10^6 cells
same,viability at 1000 µM,[9],100%
"Nc1ccn([C@H]2C[C@H](O)[C@@H](COP(=O)(O)OP(=O)(O)OP(=O)(O)O)O2)c(=O)n1 [dCTP, 2'-deoxycytidine triphosphate, reference compound]",[^3 H]dAMP incorporation representing 100% activity,"[2]; 10 μM dCTP, HSV-1 DNA polymerase",27355 cpm
same,incorporation into DNA / substrate,[2]; HSV-1 DNA polymerase,excellent substrate for DNA synthesis
same,[^3 H]dAMP incorporation representing 100% activity,"[3]; 10 μM dCTP, Human DNA polymerase",4059 cpm
same,incorporation into DNA / substrate,[3]; Human α-DNA polymerase,excellent substrate for DNA synthesis
same,cpm [^3 H]dAMP incorporated,[10]; nucleotide 0.039 μM (mixture: dCTP at this concentration + N-MeMMdCTP 0.625 μM),35 cpm
same,cpm [^3 H]dAMP incorporated,[10]; nucleotide 0.078 μM (mixture: dCTP at this concentration + N-MeMMdCTP 0.625 μM),118 cpm
same,cpm [^3 H]dAMP incorporated,[10]; nucleotide 0.156 μM (mixture: dCTP at this concentration + N-MeMMdCTP 0.625 μM),216 cpm
same,cpm [^3 H]dAMP incorporated,[10]; nucleotide 0.312 μM (mixture: dCTP at this concentration + N-MeMMdCTP 0.625 μM),527 cpm
same,cpm [^3 H]dAMP incorporated,[10]; nucleotide 0.625 μM (mixture: dCTP at this concentration + N-MeMMdCTP 0.625 μM),1171 cpm
same,cpm [^3 H]dAMP incorporated,[10]; nucleotide 1.25 μM (mixture: dCTP at this concentration + N-MeMMdCTP 0.625 μM),1603 cpm
same,cpm [^3 H]dAMP incorporated,[10]; nucleotide 2.50 μM (mixture: dCTP at this concentration + N-MeMMdCTP 0.625 μM),1554 cpm
same,cpm [^3 H]dAMP incorporated,[10]; nucleotide 5.0 μM (mixture: dCTP at this concentration + N-MeMMdCTP 0.625 μM),2032 cpm
